Measured values published in patent US7943606B2, “Compositions and methods to control abnormal cell growth” (CanCure Laboratories, LLC, priority 2005, dated 2011).

Tests used:
Type in all cases: cell-based, human
[1] = tested on: choline transport; test: [14C]choline uptake and metabolism in AN3CA, MCF-7 and MEL-28 cancer cells; conditions: 100 μM CCDTHT or 0.5 mM HC-3, 2 hours, each cell line
Method: MEL-28 and MCF-7 cells were cultured in MEM medium supplemented with 10% fetal bovine serum (FBS) and in DMEM medium supplemented with 10% FBS, respectively. The AN3CA human endometrial adenocarcinoma cells were maintained in Eagle's MEM containing 10% FBS. Cancer cells were grown up to confluency in 12-well plates in 10% fetal-bovine serum-containing medium, then incubated in the presence of 1 μCi of [methyl-^14C]choline (bought from Amersham; Piscataway, N.J.) for 2 hours. Cells were first rapidly (within 30 seconds) washed three times with 4 ml of serum-free medium, then extracted with ice-cold methanol. This was followed by the determination of cellular free radiolabeled choline and phosphocholine (PCho) by column chromatography as described earlier [Kiss, Z. and Crilly, K. S. (1995), “Tamoxifen inhibits uptake and metabolism of ethanolamine and choline in multidrug-resistant, but not in drug-sensitive, MCF-7 human breast carcinoma cells,” FEBS Lett. 360, 165-168], and the separation and determination of radiolabeled phosphatidylcholine (PtdCho) by thin layer chromatography as indicated in Kiss [Kiss, Z. (1996), “Direct proof that phorbol ester accelerates the use of choline phosphate for phosphatidylcholine synthesis in intact cells,” Arch. Biochem. Biophys. 335, 191-196].
MCF-7 and MEL-28 cells were cultured as described earlier. The AN3CA human endometrial adenocarcinoma cells were maintained in Eagle's MEM containing 10% FBS. Each cell type was grown in 12-well plates to confluency and then incubated with 1 μCi of [methyl-^14C]choline for 2 hours in the absence (□) or presence of 100 μM CCDTHT ? or 0.5 mM HC-3 (▪), followed by the determination of cellular contents of radiolabeled choline (A), PCho (B) and PtdCho (C), as indicated in FIG. 9. […] Thus, if both CCDTHT and HC-3 influenced cell viability solely via inhibition of choline metabolism, then these agents should similarly affect cell viability, at least at the concentrations used in the choline transport experiment.

[2] = tested on: HTB-157 cells; test: Viability of HTB-157 fetal (normal) fibroblasts
Method: (§1) To quantify cell death, around the time when significant and characteristic morphological changes took place, cells were pulse-labeled for 10 minutes with [^3H]thymidine to measure DNA activity as described elsewhere [Tomono, M. and Kiss, Z. (1995), “Ethanol enhances the stimulatory effects of insulin and insulin-like growth factor-I on DNA synthesis in NIH 3T3 fibroblasts,” Biochem. Biophys. Res. Commun. 208, 63-67]. Also, cells were collected as suspensions using trypsin, an established method in cell biology, followed by re-plating of cells in fresh tissue culture medium. If no viable cells were obtained after one week in culture, it meant that the cells at the time of re-plating were dead. Survival values obtained with untreated cells were considered 100%. For the determination of relative number of viable cells after treatments, in most cases the MTT assay was used. This calorimetric assay is based on the ability of living cells, but not dead cells, to reduce 3-(4,5-dimethyl thiazol-2-yl)-2,5-diphenyltetrazolium bromide [Carmichael, J, De Graff, W. G., Gazdar, A. F., Minna, J. D. and Mitchell, J. B. (1987), “Evaluation of tetrazolium-based semi-automated calorimetric assay: Assessment of chemosensitivity testing,” Cancer Res. 47, 936-942]. For this assay, cells were plated in 96-well plates, and the MTT assay was performed both in untreated and treated cell cultures. The MTT assay also was performed at the start of treatments to allow assessment of proliferation rates in the control and treated cell cultures.
(§2) NIH3T3, T47D, A-431, HT-29, and MEL-28 cells were cultured as indicated earlier. CaOV-3 human ovarian cancer cells were cultured in DMEM containing 10% FBS. ZR-75-1 human estrogen receptor-positive breast cancer cells were maintained in RPMI 1640 medium supplemented with 10% FBS. HTB-157 human fetal fibroblasts, MEL-24 human malignant melanoma cells, Hep G2 human hepatoblastoma cells, and CaCO-2 human colon adenocarcinoma cells were maintained in Eagles's MEM containing 10% FBS. MB-231 human estrogen receptor-negative breast cancer cells were maintained in Leibovitz's L-15 medium supplemented with 10% FBS. Cells were seeded into 96-well plates and treated at ˜70-90% confluency. Two hours prior to treatments the medium was changed for fresh 10% serum medium, and then the cells were incubated for 10 days in the absence (□) or presence of 50 μM CCDTHT ? or 100 μM CCDTHT (▪). The medium was changed and the cells were re-treated on days 3 and 6. The MTT assay was used to determine cell viability on day 10. The data, shown in FIG. 6, are the mean±std. dev. of 8 incubations in one experiment. (The experiment was repeated twice with similar results).
(§3) HTB-157, MEL-28, CaOV-3, T47D, and A-431 cells were maintained as indicated earlier. The 3A-SubE post crisis placenta cells (capable of unlimited proliferation) were maintained in Eagle's MEM containing 10% FBS. Cells were seeded into 96-well plates and treated at ˜70-90% confluency. Two hours before treatments the medium was changed for fresh 10% serum medium, and then cells were incubated for 48 hours in the absence (□) or presence of 50 μM CCDTHT ? or 100 μM CCDTHT (▪). Half of the cultures was analyzed by the MTT assay at this point, and the other half of the cultures was incubated for an additional 96 hours in fresh 10% serum-containing medium without CCDTHT followed by the MTT assay. The data, shown in FIG. 8, are the mean±std. dev. of 8 incubations in one experiment. (Similar results were obtained in another experiment).
(§4) HaCaT keratinocytes, frequently used immortalized model cells for studying psoriatic keratinocytes, and HTB-157 human fetus lung fibroblasts were cultured in 10% FBS-containing Dulbecco's modified Eagle's medium (DMEM). […]

[3] = Viability of HTB-157 fetal (normal) fibroblasts; conditions: human, MTT
Method: as §1, §2, §3, §4

[4] = tested on: CCF-STTG1 cells; test: Viability of CCF-STTG1 astrocytoma cells (MTT assay); conditions: 100-200 μM, 72 hours
Method: To quantify cell death, around the time when significant and characteristic morphological changes took place, cells were pulse-labeled for 10 minutes with [^3H]thymidine to measure DNA activity as described elsewhere [Tomono, M. and Kiss, Z. (1995), “Ethanol enhances the stimulatory effects of insulin and insulin-like growth factor-I on DNA synthesis in NIH 3T3 fibroblasts,” Biochem. Biophys. Res. Commun. 208, 63-67]. Also, cells were collected as suspensions using trypsin, an established method in cell biology, followed by re-plating of cells in fresh tissue culture medium. If no viable cells were obtained after one week in culture, it meant that the cells at the time of re-plating were dead. Survival values obtained with untreated cells were considered 100%. For the determination of relative number of viable cells after treatments, in most cases the MTT assay was used. This calorimetric assay is based on the ability of living cells, but not dead cells, to reduce 3-(4,5-dimethyl thiazol-2-yl)-2,5-diphenyltetrazolium bromide [Carmichael, J, De Graff, W. G., Gazdar, A. F., Minna, J. D. and Mitchell, J. B. (1987), “Evaluation of tetrazolium-based semi-automated calorimetric assay: Assessment of chemosensitivity testing,” Cancer Res. 47, 936-942]. For this assay, cells were plated in 96-well plates, and the MTT assay was performed both in untreated and treated cell cultures. […]

CC[N+](C)(CC)CCOCc1ccc2sc3ccccc3c(=O)c2c1.[I-] [CCDTHT, N,N-diethyl-N-methyl-2-[(9-oxo-9H-thioxanthen-2-yl)methoxy]-ethanaminium iodide]
inhibitory effects on choline uptake and metabolism (choline, PCho, PtdCho) [1]: comparably strong inhibitory effects
reversibility: proliferation in fresh medium after treatment, HTB-157 ([2]; 100 μM 48 hours, then 96 hours without CCDTHT): clearly resumed proliferation
decrease in DNA synthesis, HTB-157 fibroblasts ([2]; 100 μM, 48 hours): about 16%
numbers of re-plated untreated and treated HTB-157 fibroblasts ([2]; 100 μM, re-plated after treatment): practically no difference
decrease in viability of HTB-157 fibroblasts ([2]; 50-100 μM, 48 hours, MTT): 19-20%
sensitivity compared with HaCaT cells, HTB-157 fibroblasts ([2]; 50 and 100 μM, 72 hours, MTT): significantly less sensitive
cytotoxicity at 10 days, 100 μM ([3]; HTB-157 fetal (normal) fibroblasts, 100 μM, 10 days, read-out: reduction in the number of viable cells, HTB-157): ≤ 50%
cytotoxicity at 48 h ([3]; HTB-157 fetal lung (normal) fibroblasts, 50-100 μM, 48 hours, read-out: decrease in viability of HTB-157 fibroblasts): 20 to 22%
number of viable CCF-STTG1 cells [4]: sharply decrease
